Columns and labels:
Type in all cases: cell-based
VEEV = assay: microbe, parasite or virus in culture; settings: Venezuelan equine encephalitis virus, NHDF; for EC90: read-out: VEEV (NHDF cells) EC90; for log reduction at 10 µM: read-out: VEEV (NHDF cells) VTR (virus titer reduction)
DENV = assay: Antiviral activity against DENV in HEK293 cells; settings: Dengue virus; for EC90: HEK293, read-out: DENV (HEK293 cells) EC90; for log reduction at 10 µM: HEK293, read-out: DENV (HEK293 cells) VTR (virus titer reduction)
[1] = Cytotoxicity (CC50) in HEK293 cells; settings: human, WNV
Description: (§1) As used herein, “CC50” is intended to refer to the concentration of a substance (e.g., a compound or a drug) that is required for 50% reduction of cell viability. In one aspect, an CC50 can refer to the concentration of a substance that is required for 50% reduction (i.e., cytotoxicity) in vivo, as further defined elsewhere herein.
The antiviral activity against Alpharviruses evaluated in HEK293 cells (4 hours pre-incubation with compound before infected with virus) is shown in Table 2 below. VTR=Virus titer reduction in log at 10 μM concentration. NT: not tested, ND: not determined

[2] = Cytotoxicity (CC50) in NHDF cells; settings: human, CHIKV
Description: as §1
VTR=Virus titer reduction in log at 10 μM concentration. NT: not tested, ND: not determined.

WNV = assay: Antiviral activity against WNV in HEK293 cells; settings: West Nile virus; for EC90: HEK293, read-out: WNV (HEK293 cells) EC90; for log reduction at 10 µM: HEK293, read-out: WNV (HEK293 cells) VTR (virus titer reduction)
CHIKV = assay: Antiviral activity against CHIKV in NHDF cells; settings: Chikungunya virus; for EC90: read-out: CHIKV (NHDF cells) EC90; for log reduction at 10 µM: read-out: CHIKV (NHDF cells) VTR (virus titer reduction)
ZIKA = assay: Antiviral activity against ZIKA in HEK 293 cells; settings: Zika virus; for EC90: HEK293, read-out: ZIKA (HEK 293 cells) EC90; for log reduction at 10 µM: HEK293, read-out: ZIKA (HEK 293 cells) VTR (virus titer reduction)
H3N2 strain = assay: Antiviral activity against Influenza H3N2 strain in MDCK cells; settings: Influenza A virus; for EC90: 4-6 hours pre-incubation with compound; for log reduction at 20 µM: at 20 μM concentration, 4-6 hours pre-incubation, read-out: H3N2 strain (MDCK cells) VTR (virus titer reduction)
Description: (§2) The antiviral activity against Influenza viruses (H1N1 and H3N2 strains) evaluated in MDCK cells (4-6 hours pre-incubation with compound) shown in Table 5 below. VTR=Virus titer reduction in log at 20 μM concentration. NT: not tested, ND: not determined.

H1N1 strain = assay: Antiviral activity against Influenza H1N1 strain in MDCK cells; settings: Influenza A virus; for EC90: 4-6 hours pre-incubation with compound; for log reduction at 20 µM: at 20 μM concentration, 4-6 hours pre-incubation, read-out: H1N1 strain (MDCK cells) VTR (virus titer reduction)
Description: as §2

[3] = Cytotoxicity (CC50) in MDCK cells; settings: dog, H1N1
Description: as §1, §2

Structure (SMILES) | EC90 (VEEV) [µM] | log reduction at 10 µM (VEEV) | EC90 (DENV) [µM] | log reduction at 10 µM (DENV) | CC50 [1] [µM] | CC50 [2] [µM] | EC90 (WNV) [µM] | log reduction at 10 µM (WNV) | EC90 (CHIKV) [µM] | log reduction at 10 µM (CHIKV) | EC90 (ZIKA) [µM] | log reduction at 10 µM (ZIKA) | EC90 (H3N2 strain) [µM] | log reduction at 20 µM (H3N2 strain) | EC90 (H1N1 strain) [µM] | log reduction at 20 µM (H1N1 strain) | CC50 [3] [µM]
CCC(CC)COC(=O)[C@H](C)NP(=O)(OC[C@H]1O[C@@H](n2ncc(=O)[nH]c2=O)[C@H](O)[C@@H]1O)Oc1ccccc1 (mixture of isomers) [Compound 3, 2-ethylbutyl ((((2R,3S,4R,5R)-5-(3,5-dioxo-4,5-dihydro-1,2,4-triazin-2(3H)-yl)-3,4-dihydroxytetrahydrofuran-2-yl)methoxy)(phenoxy)phosphoryl)-L-alaninate] | > 10 | 0 | 2.5 | 3.5 | > 40 | > 40 | 2.9 | 3.2 | > 10 | 0 | 3.3 | 2.4 |  |  |  |  | 
CCC(CC)COC(=O)[C@H](C)NP(=O)(OC[C@H]1O[C@@H](n2ncc(N)nc2=O)C(O)C1O)Oc1ccccc1 (single isomer, unassigned) [Compound 17, 2-ethylbutyl ((((2r,9,4r,5r)-5-(5-amino-3-oxo-1,2,4-triazin-2(3H)-yl)-3,4-dihydroxytetrahydrofuran-2-yl)methoxy)-(phenoxy)phosphoryl)-L-alaninate] | 5 | 1 | > 30 |  |  |  |  |  |  |  |  |  |  |  |  |  | 
N[C@@H](Cc1ccccc1)C(=O)OC[C@H]1O[C@@H](n2ncc(=O)[nH]c2=O)[C@H](O)[C@@H]1O [Compound 11, ((2r,3s,4r,5r)-5-(3,5-dioxo-4,5-dihydro-1,2,4-triazin-2(3H)-yl)-3,4-dihydroxytetrahydrofuran-2-yl)methyl L-phenylalaninate] |  |  | > 30 |  |  | > 40 | > 30 |  | > 10 | 0.05 | > 30 |  | 0.78 | 3.4 | 0.14 | 3.4 | > 20
CC[C@@H](C)[C@@H](N)C(=O)OC[C@H]1O[C@@H](n2ncc(=O)[nH]c2=O)[C@H](O)[C@@H]1O [Compound 12, ((2r,3s,4r,5r)-5-(3,5-dioxo-4,5-dihydro-1,2,4-triazin-2(3H)-yl)-3,4-dihydroxytetrahydrofuran-2-yl)methyl D-isoleucinate] |  |  | 0.5 | 3.9 | 6.2 | > 40 |  |  | 0.89 | 4.55 |  |  |  |  |  |  | 
CC[C@H](C)[C@@H](N)C(=O)OC[C@H]1O[C@@H](n2ncc(=O)[nH]c2=O)C(O)C1O (stereo partly drawn) [Compound 13, ((2r,3s,4r,5r)-5-(3,5-dioxo-4,5-dihydro-1,2,4-triazin-2(3)-yl)-3,4-dihydroxytetrahydrofuran-2-yl)methyl D-alloisoleucinate] |  |  | 0.5 | 4 | 6.7 | > 40 |  |  | 0.51 | 4.3 |  |  |  | 2.8 |  | 3.6 | 
CC(C)C(=O)OC[C@H]1O[C@@H](n2ncc(=O)[nH]c2=O)[C@H](O)[C@@H]1O [Compound 14, ((2r,3s,4r,5r)-5-(3,5-dioxo-4,5-dihydro-1,2,4-triazin-2(3H)-yl)-3,4-dihydroxytetrahydrofuran-2-yl)-methyl isobutyrate] |  |  | 5 | 2.1 | > 40 |  |  |  |  |  |  |  | 16.4 | 3.3 | 3.6 | 3.3 | > 20
CCOP(=O)(OCC)OC[C@H]1O[C@@H](n2ncc(=O)[nH]c2=O)C(O)C1O (stereo partly drawn) [Compound 16, (2r,3s,4r,5r)-5-(3,5-dioxo-4,5-dihydro-1,2,4-triazin-2(3H)-yl)-3,4-dihydroxytetrahydrofuran-2-yl) methyl diethyl phosphate] | 10.1 | 1.05 | > 30 |  | > 40 |  | > 10 |  |  |  | > 10 |  |  |  | > 100 |  | > 100
CCCCCCCCCCCC(=O)Nc1cnn([C@@H]2O[C@H](CO)[C@@H](O)[C@H]2O)c(=O)n1 [Compound 19, N-(2-((2r,3r,4s,5r)-3,4-dihydroxy-5-(hydroxy-methyl)tetrahydrofuran-2-yl)-3-oxo-2,3-dihydro-1,2,4-triazin-5-yl)dodecanamide] |  |  | 0.6 | 2.1 | > 40 |  | 0.7 | 4 |  |  | 1.1 | 2.6 | 12.1 | 3.3 | 3.16 | 3.3 | > 20
CCCC(=O)Nc1cnn([C@@H]2O[C@H](CO)[C@@H](O)[C@H]2O)c(=O)n1 [Compound 20, N-(2-((2R,3R,4S,5R)-3,4-dihydroxy-5-(hydroxymethyl)tetrahydro-furan-2-yl)-3-oxo-2,3-dihydro-1,2,4-triazin-5-yl)butyramide] |  |  | 1.2 | 3 | 22.9 |  |  |  | 9 | 1.5 | 0.2 | 2.8 | 3.5 | 2.7 | 2.8 | 2.9 | > 20
O=C(Nc1cnn([C@@H]2O[C@H](CO)[C@@H](O)[C@H]2O)c(=O)n1)C1CC1 [Compound 21, N-(2-((2R,3R,4S,5R)-3,4-dihydroxy-5-(hydroxymethyl)tetrahydro-furan-2-yl)-3-oxo-2,3-dihydro-1,2,4-triazin-5-yl)cyclopropane-carboxamide] |  |  | 0.34 | 3.4 | 18.9 |  | 0.4 | 4.5 | 4.9 | 1.7 | 0.2 | 4 | 3.9 | 3 | 2.8 | 3.6 | > 20
O=C(Nc1cnn([C@@H]2O[C@H](CO)[C@@H](O)[C@H]2O)c(=O)n1)C1CCC1 [Compound 22, N-(2-((2R,3R,4S,5R)-3,4-dihydroxy-5-(hydroxymethyl)-tetrahydrofuran-2-yl)-3-oxo-2,3-dihydro-1,2,4-triazin-5-yl)-cyclobutanecarboxamide] |  |  | 1 | 3.2 | 6.46 |  |  |  | 8 | 0.89 | 0.4 | 2.6 | 3.9 | 3 | 0.68 | 2.9 | 19
CCOC(=O)Nc1cnn([C@@H]2O[C@H](CO)[C@@H](O)[C@H]2O)c(=O)n1 [Compound 23, ethyl (2-((2R,3R,4S,5R)-3,4-dihydroxy-5-(hydroxy-methyl)tetrahydrofuran-2-yl)-3-oxo-2,3-dihydro-1,2,4-triazin-5-yl)carbamate] |  |  | 1.3 | 3.3 | 22.4 |  |  |  | > 10 | 0 | 0.3 | 3 | 6.3 | 2 | 3.78 | 3.6 | > 20
CCCCCOC(=O)Nc1cnn([C@@H]2O[C@H](CO)[C@@H](O)[C@H]2O)c(=O)n1 [Compound 24, pentyl (2-((2R,3R,4S,5R)-3,4-dihydroxy-5-(hydroxy-methyl)tetrahydrofuran-2-yl)-3-oxo-2,3-dihydro-1,2,4-triazin-5-yl)carbamate] |  |  | 1.2 | 3.3 | 20.4 |  |  |  | > 10 | 0 | 0.3 | 3.1 |  | 1.6 |  | 2.9 | 
CC[C@H](C)[C@H](N)C(=O)OC[C@H]1O[C@@H](n2ncc(N)nc2=O)[C@H](O)[C@@H]1O [Compound 25, ((2r,3s,4r,5r)-5-(5-amino-3-oxo-1,2,4-triazin-2(3H)-yl)-3,4-dihydroxytetrahydrofuran-2-yl)methyl L-isoleucinate] | 1.5 | 2.17 | 5.1 | 2 | > 40 | > 40 |  |  | 0.85 | 2.58 |  |  |  |  |  |  | 
